Measurements taken from US11419333B2, “Compositions and methods for biofilm removal” (ChampionX USA Inc., priority 2018, dated 2022).

Tested on: Pseudomonas aeruginosa
Assay: Biocide test of quats in combination with THPS (ACCUCOUNT ATP)
Format: cell-based
Conditions: 400 ppm (active) quat with addition of 8% THPS, compared to untreated sample
Description: The ability of POLY SUGA quats to act as biocides was tested. […] Each quat was compared to an untreated sample as well as a sample treated with a nonpolymeric cationic quat used as a positive control. Each test contained Pseudomonas aeruginosa, grown to a final density of 1×E8 per mL of cells in 3% sodium chloride containing growth medium. 400 ppm (active) of each quat was added to the mix and incubated for 4 and 24 hrs. After this time, 10 ml aliquots of each sample were drawn for analysis.
Active microbial populations were estimated using the ACCUCOUNT method. ACCUCOUNT uses ATP concentrations measured using fluorescence to indirectly quantitate the number of active microbes in a given sample. It is assumed that each cell contains 1 fg of ATP. By correlating the detected fluorescence to a known concentration of standard-the number of bacterial cells/mL is estimated.
The ability of each quat to act together with a known biocide to reduce microbial populations was tested. […] THPS alone and a non-polymeric cationic quat+THPS were used as positive controls.

With “tetrakis(hydroxymethyl)phosphonium sulfate [THPS]” the “% reduction in bacteria” value (4 Hrs.) was 89.75% and the “% reduction in bacteria” value (24 Hrs.) was 91.73%.
